Measured values: US9562043B2 (EA Pharma Co., Ltd., priority 2012, dated 2017)

Assays:
human TRPA1 = biological target: T1, human TRPA1 (Homo sapiens, UniProt O75762); assay: Measurement of TRPA1 antagonist activity (intracellular calcium increase, FLIPR); assay type: cell-based; conditions: 293T cells transfected with human TRPA1 expression plasmid, allylisothiocyanate 20 μM stimulation, calcium fluorescence, read-out: antagonism hTRPA1
T1 construct: host or cells: human embryonic kidney-derived 293T cells, transient transfection with pcDNA3.1/zeo(+) plasmid
T1 sequence (O75762 whole entry): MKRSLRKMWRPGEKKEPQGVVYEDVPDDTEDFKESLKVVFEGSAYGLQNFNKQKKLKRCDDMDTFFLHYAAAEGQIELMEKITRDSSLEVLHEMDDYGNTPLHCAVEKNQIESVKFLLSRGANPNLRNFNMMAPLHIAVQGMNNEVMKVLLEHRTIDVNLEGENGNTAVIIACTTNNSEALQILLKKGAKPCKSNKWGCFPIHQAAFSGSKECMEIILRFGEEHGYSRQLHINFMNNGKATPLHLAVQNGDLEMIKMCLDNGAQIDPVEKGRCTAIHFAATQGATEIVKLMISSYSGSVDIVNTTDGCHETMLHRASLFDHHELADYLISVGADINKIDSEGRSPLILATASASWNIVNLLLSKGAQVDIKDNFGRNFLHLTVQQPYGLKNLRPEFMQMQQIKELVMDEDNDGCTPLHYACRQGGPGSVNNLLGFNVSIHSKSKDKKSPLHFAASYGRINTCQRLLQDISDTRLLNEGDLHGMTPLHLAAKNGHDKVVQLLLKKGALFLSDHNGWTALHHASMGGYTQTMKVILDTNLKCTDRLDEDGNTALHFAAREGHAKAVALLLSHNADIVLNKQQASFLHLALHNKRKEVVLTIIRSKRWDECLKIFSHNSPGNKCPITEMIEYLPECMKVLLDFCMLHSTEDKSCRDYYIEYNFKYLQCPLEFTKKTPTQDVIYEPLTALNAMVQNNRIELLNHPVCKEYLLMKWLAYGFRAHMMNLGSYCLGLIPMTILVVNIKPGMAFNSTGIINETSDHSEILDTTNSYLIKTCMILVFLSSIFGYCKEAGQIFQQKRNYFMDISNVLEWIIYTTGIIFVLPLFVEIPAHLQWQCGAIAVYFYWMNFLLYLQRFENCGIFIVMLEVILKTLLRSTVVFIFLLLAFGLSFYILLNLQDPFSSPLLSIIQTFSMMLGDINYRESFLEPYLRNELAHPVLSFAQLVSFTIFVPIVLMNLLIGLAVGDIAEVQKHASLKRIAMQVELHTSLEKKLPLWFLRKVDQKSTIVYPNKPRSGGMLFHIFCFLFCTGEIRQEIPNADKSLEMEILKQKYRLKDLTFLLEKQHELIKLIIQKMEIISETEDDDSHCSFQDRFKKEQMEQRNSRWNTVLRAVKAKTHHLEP
From the text: Measurement of TRPA1 Antagonist Activity
Human TRPA1 Expression Plasmid
As cDNA encoding human TRPA1 (GenBank accession No. […]), a commercially available product was purchased (manufactured by Kazusa DNA Research Institute, clone No.: pFN21AB7348, item No.: FHC07217). Using this as a template, full-length human TRPA1 gene was amplified using the primer sequences shown below, by reaction using DNA polymerase (manufactured by Stratagene, trade name: PfuUltra High-Fidelity DNA Polymerase).
A recognition site (underlined) of restriction enzyme HindIII was added to the 5′ side, and XbaI site (underlined) was added to the 3′ side, and GTT of the template sequence was changed to termination codon TAG (bold). The obtained double stranded DNA was enzyme-digested with HindIII and XbaI, and introduced into a multicloning site of expression plasmid pcDNA3.1/zeo(+) (manufactured by Invitrogen) to give a human TRPA1 expression plasmid.
Human embryonic kidney-derived 293T cells were cultured in Dulbecco's Modified Eagle Medium containing 10% fetal bovine serum, 10 unit penicillin, and 10 μg streptomycin, plated on a petri dish having a diameter of 10 cm at 3×10^6 cells, and cultured for 24 hr. A medium containing a reduced amount of serum (manufactured by Invitrogen, trade name: OPTI-MEM, 600 μL), a gene insertion reagent (manufactured by Mirus Bio, trade name: Mirus TransIT-293, 18 μL), and human TRPA1 expression plasmid (6 μg) were mixed, the total amount of the mixture was added to the cells on the petri dish to allow for gene transfer. The cells were recovered about 8 hr later, plated on a poly-D-lysine coated 384 well black/clear bottom plate at 7,500-12,000 cells/well, and cultured overnight.
Measurement of Intracellular Calcium Increase
The 384 well plate was recovered, and the medium was removed. A calcium-bonded fluorescent indicator (manufactured by Molecular Device, trade name: Calcium4 Assay Kit, 40 μL) dissolved in assay buffer (1×HBSS, 20 mM HEPES, pH 7.2) was added, and the cells were stained in a 37° C. incubator for 1 hr. The cells were taken out at room temperature and left standing for 15 min or more. A test substance (10 μL) was added by a 384 well type dispenser, and the mixture was incubated at room temperature for 10 min. Then, allylisothiocyanate (12.5 μL) at a final concentration of 20 μM was added by a fluorescence imaging plate reader (manufactured by Molecular Device, FLIPR), and changes in the relative fluorescence intensity were measured for 5 min.
Test Substance Preparation
The test substance was dissolved in dimethyl sulfoxide and serially diluted with an assay buffer containing 0.1% bovine serum albumin (1×HBSS, 20 mM HEPES, pH 7.2) to a 5-fold concentration of the evaluation concentration. Allylisothiocyanate, which is a known TRPA1 activator, was dissolved in dimethyl sulfoxide to 100 mM, and further diluted 5-fold (100 μM) of the final concentration, like the test substance.
Calculation of Antagonist Activity
Under the test substance-free conditions, the maximum variation range of the fluorescence intensity before and after allylisothiocyanate stimulation was defined to be 100% activity rate, and the variation range before and after buffer stimulation was defined as 0% activity rate. The activity rate on addition of the test substance was determined, and the numerical value obtained by subtracting the activity rate from 100 was defined to be an inhibitory rate. IC50, which is the concentration of the test substance necessary for reaching the 50% inhibitory rate, was calculated from the sigmoid approximate curve by a spreadsheet software Excel-Fit.

TRPA1 channel = biological target: T2, TRPA1 channel (Mus musculus, UniProt Q8BLA8); assay: AITC-induced pain behavior evaluation test (mouse licking model); assay type: in vivo; conditions: male ICR mice; p.o. 30 mpk, 1 h before AITC (0.1%) s.c. to sole; licking time in 5 min vs vehicle
T2 construct: from tissue; host or cells: living male ICR mice (sole of the left leg, sensory nerves)
T2 sequence (Q8BLA8 whole entry): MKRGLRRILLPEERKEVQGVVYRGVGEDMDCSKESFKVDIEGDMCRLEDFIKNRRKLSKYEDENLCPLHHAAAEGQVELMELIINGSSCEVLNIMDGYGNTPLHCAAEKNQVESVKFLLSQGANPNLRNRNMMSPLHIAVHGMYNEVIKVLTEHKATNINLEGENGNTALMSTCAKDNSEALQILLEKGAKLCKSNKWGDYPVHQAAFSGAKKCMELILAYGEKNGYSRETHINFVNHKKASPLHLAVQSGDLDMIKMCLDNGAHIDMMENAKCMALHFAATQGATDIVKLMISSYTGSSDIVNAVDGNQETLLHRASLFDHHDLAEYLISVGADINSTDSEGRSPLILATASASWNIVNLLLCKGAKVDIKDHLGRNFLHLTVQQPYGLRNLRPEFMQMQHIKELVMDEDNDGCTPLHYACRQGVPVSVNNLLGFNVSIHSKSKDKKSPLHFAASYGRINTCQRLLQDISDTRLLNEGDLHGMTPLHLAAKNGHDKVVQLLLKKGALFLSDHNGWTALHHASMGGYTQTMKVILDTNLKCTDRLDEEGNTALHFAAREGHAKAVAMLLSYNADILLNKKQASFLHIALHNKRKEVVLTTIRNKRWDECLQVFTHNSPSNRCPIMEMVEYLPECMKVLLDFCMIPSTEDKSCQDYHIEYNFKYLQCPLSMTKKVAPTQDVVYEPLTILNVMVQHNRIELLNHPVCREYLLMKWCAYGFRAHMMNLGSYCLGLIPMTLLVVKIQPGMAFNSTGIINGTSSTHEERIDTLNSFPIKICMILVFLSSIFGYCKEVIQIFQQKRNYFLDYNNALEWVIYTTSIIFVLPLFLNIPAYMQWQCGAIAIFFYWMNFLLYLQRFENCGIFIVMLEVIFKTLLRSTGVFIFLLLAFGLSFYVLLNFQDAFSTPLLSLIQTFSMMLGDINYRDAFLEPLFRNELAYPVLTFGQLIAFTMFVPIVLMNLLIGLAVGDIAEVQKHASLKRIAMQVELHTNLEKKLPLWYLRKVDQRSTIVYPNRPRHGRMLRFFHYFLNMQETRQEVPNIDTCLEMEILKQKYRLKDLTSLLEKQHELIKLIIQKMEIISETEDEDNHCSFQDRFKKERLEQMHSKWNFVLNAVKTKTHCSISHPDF
Protocol: AITC-Induced Pain Behavior Evaluation Test
To evaluate the effectiveness of the test substance in vivo, allylisothiocyanate (AITC)-induced pain behavior evaluation test was performed using mice.
AITC is a selective agonist of the TRPA1 channel, and causes a pain behavior by TRPA1 activation when administered to animal. Therefore, the intensity of the TRPA1 antagonist action of the test substance in the living body can be evaluated by measuring the pain behavior after AITC administration.
1. Administration of Test Substance to Animal
As the animal, male ICR mice (6- to 8-week-old) were used. The mice were fasted the previous day of the test. The test substance was intraperitoneally or orally administered for evaluation. In the case of intraperitoneal administration, the substance was administered 30 min before the AITC administration. In the oral administration, the substance was administered 60 min before the AITC administration.
2. AITC-Induced Pain Behavior Evaluation
3. Calculation of Inhibitory Rate
The licking time of the vehicle administration group in each test was taken as 100%, and the activity rate by administration of each test substance (Licking time on test substance administration/Licking time of vehicle administration group×100) was determined, and the numerical value obtained by subtracting the activity rate from 100 was calculated as an inhibitory rate.

SMILES | IC50 (human TRPA1) | mouse licking model (p.o. 1 h, 30 mpk) (% inh.) (TRPA1 channel)
O=C(NCc1nc(-c2ccc(OC(F)(F)F)cc2)cs1)[C@@H]1C=CCN1S(=O)(=O)c1ccc(Cl)s1 [compound 20, (2S)-1-(5-chlorothiophene-2-sulfonyl)-N-({4-(4-(trifluoromethoxy)phenyl]-thiazol-2-yl}methyl)-3,4-didehydropyrrolidine-2-carboxamide] | 90 nM | 43 % inh.
O=C(NCc1nc(-c2ccc(C(F)(F)F)cc2)c[nH]1)[C@@H]1CCCN1S(=O)(=O)c1ccc(Cl)s1 [compound 16, (2S)-1-(5-chlorothiophene-2-sulfonyl)-N-({4-[4-(trifluoromethyl)phenyl]-imidazol-2-yl}methyl)-pyrrolidine-2-carboxamide] | 5840 nM | 
O=C(NCc1nc(-c2ccc(C(F)(F)F)cc2)cs1)[C@@H]1CCCN1S(=O)(=O)c1ccc(Cl)nc1 [compound 46, (2S)-1-[(6-chloro-3-pyridyl)-sulfonyl]-N-({4-[4-(trifluoro-methyl)phenyl]thiazol-2-yl}-methyl)pyrrolidine-2-carboxamide] | 570 nM | 
O=C(NCc1nc(-c2ccc(C(F)(F)F)cc2)cs1)[C@@H]1CCCN1S(=O)(=O)c1ccccc1 [compound 47, (2S)-1-(benzenesulfonyl)-N-({4-[4-(trifluoromethyl)-phenyl]thiazol-2-yl}methyl)-pyrrolidine-2-carboxamide] | 810 nM | 
C[C@H](NC(=O)[C@@H]1CCCN1S(=O)(=O)c1ccc(Cl)s1)c1nc(-c2ccc(OC(F)(F)F)cc2)cs1 [compound 11, (2S)-1-(5-chlorothiophene-2-sulfonyl)-N-[(1S)-1-{4-(4-(trifluoromethoxy)phenyl]-thiazol-2-yl}ethyl]-pyrrolidine-2-carboxamide] | 480 nM | 

Other lines, results leading:

IC50 (human TRPA1) | mouse licking model (p.o. 1 h, 30 mpk) (% inh.) (TRPA1 channel) | SMILES
140 nM | 36 % inh. | O=C(NCc1nc(-c2ccc(C(F)(F)F)cc2)cs1)[C@@H]1CCCN1S(=O)(=O)c1ccc(Cl)s1 [compound 1, (2S)-1-(5-chlorothiophene-2-sulfonyl)-N-({4-[4-(trifluoromethyl)phenyl]thiazol-2-yl}methyl)pyrrolidine-2-carboxamide]
670 nM |  | O=C(NCc1nc(-c2ccc(Cl)cc2)cs1)[C@@H]1CCCN1S(=O)(=O)c1ccc(Cl)s1 [compound 2, (2S)-1-(5-chlorothiophene-2-sulfonyl)-N-{[4-(4-chlorophenyl)thiazol-2-yl]methyl}pyrrolidine-2-carboxamide]
580 nM |  | Cc1ccc(-c2csc(CNC(=O)[C@@H]3CCCN3S(=O)(=O)c3ccc(Cl)s3)n2)cc1 [compound 5, (2S)-1-(5-chlorothiophene-2-sulfonyl)-N-{[4-(4-methylphenyl)thiazol-2-yl]methyl}pyrrolidine-2-carboxamide]
